# From paper PMC5913986, “Repurposing and Reformulation of the Antiparasitic Agent Flubendazole for Treatment of Cryptococcal Meningoencephalitis, a Neglected Fungal Disease” (Antimicrobial Agents and Chemotherapy, 2018)
# Where two headings read alike, the source gives them in different places.
# Key:
# [1] = tested on: C. neoformans var. grubii (ATCC 208821; H99); test: Hollow-fiber infection model of cryptococcal meningoencephalitis; type: cell-based, Cryptococcus neoformans; conditions: q24h for 8 days, intended peaks 1.25, 2.5, 10 mg/liter
# Description: A new hollow-fiber infection model was developed to investigate the in vitro pharmacodynamics of flubendazole against C. neoformans. The same cartridges (FiberCell Systems, Frederick, MD) and configuration as previously described for bacterial pathogens was used (see, for example, reference). The extracapillary space of each cartridge was inoculated with 40 ml of a suspension containing 6 log10 CFU/ml of C. neoformans var. grubii (ATCC 208821; H99). Yeast extract-peptone-dextrose (YPD) medium was pumped from the central compartment through the cartridge and back again using a peristaltic pump (205 U; Watson-Marlow, United Kingdom). The hollow-fiber infection model was incubated at 37°C in ambient air. The time course of fungal growth was determined by removing 1 ml from the extracapillary space of the cartridge and plating serial 10-fold dilutions to YPD agar.
# The relationship between flubendazole exposure and its effect was explored using a range of drug exposures. […] Various doses of flubendazole were administered q24h by infusion over 1 h for 8 days to the central compartment using a programmable syringe driver (Aladdin pump; World Precision Instruments, United Kingdom). There was a 24-h delay in the initiation of flubendazole therapy postinoculation. […]
# Cryptococcus neoformans = type: in vivo, mice
# C. neoformans isolates [2] = test: MIC determination, EUCAST methodology; type: cell-based, Cryptococcus neoformans; conditions: for MIC: Cryptococcus neoformans
# Description: (§1) The initial in vitro susceptibility testing was performed with H99 (ATCC 208821). An additional 49 clinical isolates were obtained from the National Centre for Microbiology Instituto de Salud Carlos III, Madrid, Spain (courtesy of Ana Alastruey-Izquierdo and Manual Cuenca-Estrella). These isolates were identified to the species level using standard microbiological techniques.
# (§2) The MIC of flubendazole against H99 (ATCC 208821) and the 49 isolates was estimated using methodology of the European Committee on Antimicrobial Susceptibility Testing (EUCAST [25]) and the Clinical and Laboratory Standards Institute (CLSI [26]). The endpoint for MIC determination using was 50% for both the EUCAST and CLSI methods. MICs were performed in triplicate.
# C. neoformans isolates [3] = test: MIC determination, CLSI methodology; type: cell-based, Cryptococcus neoformans; conditions: 50 strains
# Description: as §1, §2
# [4] = In vitro DMPK: plasma protein binding; type: in vitro ADME
# porcine tubulin = target: T1, porcine tubulin (Sus scrofa, UniProt P02554); test: Porcine tubulin polymerization assay; type: biochemical; conditions: 37°C, 1 h, read-out: IC50 against porcine tubulin
# T1 construct: purified porcine brain tubulin; purchased Cytoskeleton, Inc., Denver, CO BK011P; host or cells: porcine brain (tissue-purified)
# T1 sequence (P02554 whole entry): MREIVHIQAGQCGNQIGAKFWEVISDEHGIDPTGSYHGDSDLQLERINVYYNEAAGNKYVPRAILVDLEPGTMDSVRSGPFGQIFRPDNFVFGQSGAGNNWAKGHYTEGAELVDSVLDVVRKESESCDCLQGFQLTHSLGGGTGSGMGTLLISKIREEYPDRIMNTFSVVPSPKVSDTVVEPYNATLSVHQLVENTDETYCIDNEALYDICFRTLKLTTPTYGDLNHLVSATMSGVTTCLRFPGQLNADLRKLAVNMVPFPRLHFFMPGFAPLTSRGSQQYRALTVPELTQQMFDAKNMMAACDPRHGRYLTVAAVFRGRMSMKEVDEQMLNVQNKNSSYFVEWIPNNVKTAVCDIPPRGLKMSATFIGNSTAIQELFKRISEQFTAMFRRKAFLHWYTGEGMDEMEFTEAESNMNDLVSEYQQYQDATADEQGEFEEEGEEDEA
# T1 sequence (P02550 whole entry partner): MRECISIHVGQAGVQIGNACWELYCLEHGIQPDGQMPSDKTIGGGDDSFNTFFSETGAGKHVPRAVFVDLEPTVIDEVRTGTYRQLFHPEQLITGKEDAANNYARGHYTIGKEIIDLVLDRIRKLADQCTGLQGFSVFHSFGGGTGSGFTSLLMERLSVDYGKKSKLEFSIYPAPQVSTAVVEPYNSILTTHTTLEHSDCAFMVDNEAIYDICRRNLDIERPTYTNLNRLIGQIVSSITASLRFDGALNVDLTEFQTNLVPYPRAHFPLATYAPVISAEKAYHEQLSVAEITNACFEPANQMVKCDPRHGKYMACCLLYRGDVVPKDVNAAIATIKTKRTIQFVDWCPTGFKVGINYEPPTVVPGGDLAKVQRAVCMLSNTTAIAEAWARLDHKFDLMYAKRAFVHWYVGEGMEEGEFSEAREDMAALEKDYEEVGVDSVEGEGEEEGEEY
# Description: Porcine tubulin is generally used as a surrogate for human tubulin because of its high degree of homology (95%) ([27]). […] The commercially available porcine tubulin assay (BK011P; Cytoskeleton, Inc., Denver, CO) quantifies the time-dependent polymerization of tubulin to microtubules and thus the ability of tubulin inhibitors to disrupt this process.
# The porcine tubulin assay was performed according to the manufacturer's instructions. Briefly, the 96-well assay plate was prewarmed to 37°C prior to use. Five microliters of test compound(s) and controls at 0, 1.25, 2.5, 5, and 10 μM were aliquoted into each well and prewarmed for 1 min. […] Polymerization was initiated by mixing 45 μl of reaction buffer that contained 2 mg/ml of purified porcine brain tubulin, 10 μM fluorescent reporter, PEM buffer (80 mM PIPES, 0.5 mM EGTA, 2 mM MgCl2 [pH 6.9]), 1 mM GTP, and 20.3% glycerol. Tubulin polymerization was followed by an increase in fluorescence intensity due to the incorporation of a fluorescence reporter into microtubules as polymerization occurred. The change in fluorescence was measured using an excitation and emission wavelength of 360 nm and 450 nm, respectively, every 1 min for 1 h at 37°C using a Varioskan multimode plate reader (Thermo scientific Inc.). All data points were acquired in triplicate, and IC50s were calculated with GraphPad Prism. […]
# [5] = dogs, 20, 40, 100 mg/kg/day, 2 weeks; ref Janssen GLP toxicology studies; cited from earlier work
# [6] = In vitro DMPK: aqueous solubility; type: physicochemical
# [7] = Pharmacokinetics of oral flubendazole in rabbits
# Description: PK-PD relationships in the rabbit were estimated in two independently conducted experiments including 6 rabbits in each. Rabbits were placed under general anesthesia for removal of CSF via intracisternal tapping at 48 h intervals. […] Treatment was initiated 48 h postinoculation and continued for 10 days, after which time all rabbits were sacrificed. Thus, the total duration of the experiment was 288 h.
# Flubendazole concentrations in all matrices were measured using validated ultrahigh-performance liquid chromatography-tandem mass spectrometry (LC-MS/MS) implemented on an Agilent 6420 triple quad mass spectrometer and an Agilent 1290 infinity LC system (Agilent Technologies UK Ltd., Cheshire, UK). Flubendazole was extracted by protein precipitation by adding 300 μl of a 50:50 mix of acetonitrile and methanol that contained the internal standard [6,7-dimethyl-2,3-di(2-pyridyl) quinoxaline; Sigma-Aldrich, Dorset, UK] at a final concentration of 1 mg/liter to 30 μl of each matrix.
# [8] = In vitro DMPK: rat hepatic intrinsic clearance; type: in vitro ADME; conditions: hepatocytes
# In vitro DMPK: logD7.4 = type: physicochemical; conditions: pH 7.4; commercially available powder
# [9] = rats, 5, 15, 30 mg/kg/day (male), 2.5, 5, 10 mg/kg/day (female), 2 weeks; ref Janssen GLP toxicology studies; cited from earlier work
compound,measurement,setting,value
COC(=O)Nc1nc2cc(C(=O)c3ccc(F)cc3)ccc2[nH]1 [flubendazole],antifungal activity in hollow-fiber model,[1],Rapid fungicidal activity
same,"antifungal effect, orally administered pure compound","Cryptococcus neoformans; mice, oral, water, polysorbate 80/PBS, DMSO, PEG400 or cyclodextrin vehicles, data not shown",no demonstrable antifungal effect
same,flubendazole concentrations in plasma and cerebrum,"Cryptococcus neoformans; mouse, in vivo",quantifiable in plasma and the cerebrum
same,MIC,"C. neoformans isolates [2]; EUCAST methodology, read-out: modal MIC",0.125 µg/mL
same,MIC,"C. neoformans isolates [2]; range over isolates, Table 1, comparable with EUCAST and CLSI, read-out: MICs",0.06 to 0.25 µg/mL
same,No. of isolates with MIC (mg/liter) of: 0.03,"C. neoformans isolates [2]; EUCAST, 50 strains",1
same,No. of isolates with MIC (mg/liter) of: 0.06,"C. neoformans isolates [2]; EUCAST, 50 strains",19
same,No. of isolates with MIC (mg/liter) of: 0.125,"C. neoformans isolates [2]; EUCAST, 50 strains",25
same,No. of isolates with MIC (mg/liter) of: 0.25,"C. neoformans isolates [2]; EUCAST, 50 strains",5
same,No. of isolates with MIC (mg/liter) of: 0.5,"C. neoformans isolates [2]; EUCAST, 50 strains",0
same,No. of isolates with MIC (mg/liter) of: 0.03,C. neoformans isolates [3],2
same,No. of isolates with MIC (mg/liter) of: 0.06,C. neoformans isolates [3],40
same,No. of isolates with MIC (mg/liter) of: 0.125,C. neoformans isolates [3],8
same,No. of isolates with MIC (mg/liter) of: 0.25,C. neoformans isolates [3],0
same,No. of isolates with MIC (mg/liter) of: 0.5,C. neoformans isolates [3],0
same,fraction unbound,[4],0.094
same,IC50,porcine tubulin,2.38 µM
same,liver toxicity,[5],liver toxicity was also observed
same,toxicity findings,[5],"evidence of toxicity related to the pharmacological activity of flubendazole in the gastrointestinal tract, lymphoid system, and bone marrow, as well as testicular toxicity"
same,solubility,[6],0.8 µM
same,oral bioavailability,[7],orally bioavailable
same,drug concentrations in CSF or cerebrum,"[7]; oral 6 or 22.5 mg/kg q24h, at time of sacrifice, limit of quantitation 0.0005 mg/liter",no quantifiable drug concentrations
same,hepatocyte CLint,[8],39 µL/min/1e6 cells
same,logD,In vitro DMPK: logD7.4,2.9
same,toxicity findings,[9],"evidence of toxicity related to the pharmacological activity of flubendazole in the gastrointestinal tract, lymphoid system, and bone marrow, as well as testicular toxicity"
